How the values were obtained:
Assay in all cases: relative viability (nuclei count vs DMSO), 5 days (fraction); higher = more cells survive
PC-14 = tested on: PC-14
Summary of the method: (§1)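 Relative viability equals treated-well nuclei counts divided by vehicle-well nuclei counts. Counts came from 4× images of lung cancer cell lines grown in 1536-well plates for 5 days after pin-tool dosing on the day after seeding. Dosing used one drug alone or a fixed anchor-drug dose plus five library-drug doses (not always all listed) in √10 steps, and values are medians of duplicate plates.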

LOU-NH91 = tested on: LOU-NH91
Summary of the method: as §1

HARA = tested on: HARA
Summary of the method: as §1

NCI-H1437 = tested on: NCI-H1437
Summary of the method: as §1

ABC-1 = tested on: ABC-1
Summary of the method: as §1

NCI-H1666 = tested on: NCI-H1666
Summary of the method: as §1

COR-L 105 = tested on: COR-L 105
Summary of the method: as §1

NCI-H661 = tested on: NCI-H661
Summary of the method: as §1

NCI-H1650 = tested on: NCI-H1650
Summary of the method: as §1

NCI-H2170 = tested on: NCI-H2170
Summary of the method: as §1

NCI-H727 = tested on: NCI-H727
Summary of the method: as §1

CAL-12T = tested on: CAL-12T
Summary of the method: as §1

201T = tested on: 201T
Summary of the method: as §1

BEN = tested on: BEN
Summary of the method: as §1

HCC-366 = tested on: HCC-366
Summary of the method: as §1

LK-2 = tested on: LK-2
Summary of the method: as §1

EKVX = tested on: EKVX
Summary of the method: as §1

NCI-H2009 = tested on: NCI-H2009
Summary of the method: as §1

NCI-H3122 = tested on: NCI-H3122
Summary of the method: as §1

NCI-H441 = tested on: NCI-H441
Summary of the method: as §1

SW 900 = tested on: SW 900
Summary of the method: as §1

NCI-H460 = tested on: NCI-H460
Summary of the method: as §1

Cc1sc2c(c1C)C(c1ccc(Cl)cc1)=N[C@@H](CC(=O)OC(C)(C)C)c1nnc(C)n1-2 [JQ1] + COc1cccc2cc(-c3nc([C@H]4CC[C@H](C(=O)O)CC4)n4ncnc(N)c34)[nH]c12 [OSI-027] (partner 0.5 µM)
relative viability (PC-14; first compound 0.04 µM): 0.713
relative viability (PC-14; first compound 0.1265 µM): 0.638
relative viability (PC-14; first compound 0.4 µM): 0.514
relative viability (PC-14; first compound 1.265 µM): 0.311
relative viability (PC-14; first compound 4 µM): 0.343
relative viability (LOU-NH91; first compound 0.04 µM): 0.721
relative viability (LOU-NH91; first compound 0.1265 µM): 0.674
relative viability (LOU-NH91; first compound 0.4 µM): 0.564
relative viability (LOU-NH91; first compound 1.265 µM): 0.537
relative viability (LOU-NH91; first compound 4 µM): 0.431
relative viability (HARA; first compound 0.04 µM): 0.418
relative viability (HARA; first compound 0.1265 µM): 0.341
relative viability (HARA; first compound 0.4 µM): 0.282
relative viability (HARA; first compound 1.265 µM): 0.11
relative viability (HARA; first compound 4 µM): 0.141
relative viability (NCI-H1437; first compound 0.04 µM): 0.871
relative viability (NCI-H1437; first compound 0.1265 µM): 0.809
relative viability (NCI-H1437; first compound 0.4 µM): 0.599
relative viability (NCI-H1437; first compound 1.265 µM): 0.36
relative viability (NCI-H1437; first compound 4 µM): 0.319
relative viability (ABC-1; first compound 0.04 µM): 0.452
relative viability (ABC-1; first compound 0.1265 µM): 0.352
relative viability (ABC-1; first compound 0.4 µM): 0.322
relative viability (ABC-1; first compound 1.265 µM): 0.187
relative viability (ABC-1; first compound 4 µM): 0.212
relative viability (NCI-H1666; first compound 0.04 µM): 0.761
relative viability (NCI-H1666; first compound 0.1265 µM): 0.901
relative viability (NCI-H1666; first compound 0.4 µM): 0.726
relative viability (NCI-H1666; first compound 1.265 µM): 0.581
relative viability (NCI-H1666; first compound 4 µM): 0.789
relative viability (COR-L 105; first compound 0.04 µM): 0.608
relative viability (COR-L 105; first compound 0.1265 µM): 0.336
relative viability (COR-L 105; first compound 0.4 µM): 0.297
relative viability (COR-L 105; first compound 1.265 µM): 0.207
relative viability (COR-L 105; first compound 4 µM): 0.248
relative viability (NCI-H661; first compound 0.04 µM): 0.714
relative viability (NCI-H661; first compound 0.1265 µM): 0.517
relative viability (NCI-H661; first compound 0.4 µM): 0.603
relative viability (NCI-H661; first compound 1.265 µM): 0.423
relative viability (NCI-H661; first compound 4 µM): 0.453
relative viability (NCI-H1650; first compound 0.04 µM): 0.51
relative viability (NCI-H1650; first compound 0.1265 µM): 0.447
relative viability (NCI-H1650; first compound 0.4 µM): 0.328
relative viability (NCI-H1650; first compound 1.265 µM): 0.153
relative viability (NCI-H1650; first compound 4 µM): 0.206
relative viability (NCI-H2170; first compound 0.04 µM): 0.683
relative viability (NCI-H2170; first compound 0.1265 µM): 0.623
relative viability (NCI-H2170; first compound 0.4 µM): 0.688
relative viability (NCI-H2170; first compound 1.265 µM): 0.422
relative viability (NCI-H2170; first compound 4 µM): 0.362
relative viability (NCI-H727; first compound 0.04 µM): 0.576
relative viability (NCI-H727; first compound 0.1265 µM): 0.582
relative viability (NCI-H727; first compound 0.4 µM): 0.414
relative viability (NCI-H727; first compound 1.265 µM): 0.375
relative viability (NCI-H727; first compound 4 µM): 0.406
relative viability (CAL-12T; first compound 0.04 µM): 0.618
relative viability (CAL-12T; first compound 0.1265 µM): 0.586
relative viability (CAL-12T; first compound 0.4 µM): 0.32
relative viability (CAL-12T; first compound 1.265 µM): 0.192
relative viability (CAL-12T; first compound 4 µM): 0.173
relative viability (201T; first compound 0.04 µM): 0.761
relative viability (201T; first compound 0.1265 µM): 0.596
relative viability (201T; first compound 0.4 µM): 0.688
relative viability (201T; first compound 1.265 µM): 0.238
relative viability (201T; first compound 4 µM): 0.201
relative viability (BEN; first compound 0.04 µM): 0.282
relative viability (BEN; first compound 0.1265 µM): 0.286
relative viability (BEN; first compound 0.4 µM): 0.335
relative viability (BEN; first compound 1.265 µM): 0.252
relative viability (BEN; first compound 4 µM): 0.2
relative viability (HCC-366; first compound 0.04 µM): 0.958
relative viability (HCC-366; first compound 0.4 µM): 0.783
relative viability (HCC-366; first compound 1.265 µM): 0.336
relative viability (HCC-366; first compound 4 µM): 0.31
relative viability (LK-2; first compound 0.04 µM): 0.204
relative viability (LK-2; first compound 0.1265 µM): 0.21
relative viability (LK-2; first compound 0.4 µM): 0.188
relative viability (LK-2; first compound 1.265 µM): 0.122
relative viability (LK-2; first compound 4 µM): 0.143
relative viability (EKVX; first compound 0.04 µM): 0.698
relative viability (EKVX; first compound 0.1265 µM): 0.587
relative viability (EKVX; first compound 0.4 µM): 0.722
relative viability (EKVX; first compound 1.265 µM): 0.571
relative viability (EKVX; first compound 4 µM): 0.488
relative viability (NCI-H2009; first compound 0.04 µM): 0.558
relative viability (NCI-H2009; first compound 0.1265 µM): 0.471
relative viability (NCI-H2009; first compound 0.4 µM): 0.318
relative viability (NCI-H2009; first compound 1.265 µM): 0.185
relative viability (NCI-H2009; first compound 4 µM): 0.179
relative viability (NCI-H3122; first compound 0.04 µM): 0.898
relative viability (NCI-H3122; first compound 0.4 µM): 0.784
relative viability (NCI-H3122; first compound 1.265 µM): 0.392
relative viability (NCI-H3122; first compound 4 µM): 0.264
relative viability (NCI-H441; first compound 0.04 µM): 0.718
relative viability (NCI-H441; first compound 0.1265 µM): 0.583
relative viability (NCI-H441; first compound 0.4 µM): 0.705
relative viability (NCI-H441; first compound 1.265 µM): 0.392
relative viability (NCI-H441; first compound 4 µM): 0.334
relative viability (SW 900; first compound 0.04 µM): 0.572
relative viability (SW 900; first compound 0.1265 µM): 0.627
relative viability (SW 900; first compound 0.4 µM): 0.352
relative viability (SW 900; first compound 1.265 µM): 0.165
relative viability (SW 900; first compound 4 µM): 0.166
relative viability (NCI-H460; first compound 0.04 µM): 0.594
relative viability (NCI-H460; first compound 0.1265 µM): 0.366
relative viability (NCI-H460; first compound 0.4 µM): 0.259
relative viability (NCI-H460; first compound 1.265 µM): 0.0873
relative viability (NCI-H460; first compound 4 µM): 0.0909
